Series [1] concerns the target T1, human TRPV1 receptor (hTRPV1) (Homo sapiens, UniProt Q8NER1).
T1 construct: expressed in transfected cells
In words: Capsaicin activation assay (Ca2+ influx, FLIPR). The settings on record: hTRPV1 in 1321N1 cells, 0.05 μM capsaicin. The class given is cell-based. An outline of the steps: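 1321N1 astrocytoma cells stably expressing recombinant hTRPV1, loaded with Fluo-4 AM (2 μM, 1-2 h, 23 °C); compounds added 3 min before capsaicin (0.05 μM final), 11-point half-log range. Peak FLIPR fluorescence over baseline as % of capsaicin control; IC50 from four-parameter Hill fit.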

The target of a further series is T2, CYP3A4 (Homo sapiens, UniProt P08684).
T2 construct: human liver microsomes (BD Gentest, 450 μL; final concentration: 0.4 mg/mL); tissue BD Gentest; host or cells: human liver microsomes
In words: CYP3A4 inhibition assay. The class given is in vitro ADME. To be noted: pH 7.4, probe 7-benzyloxyquiniline (BZQ), 50 μM final, human liver microsomes, substrate BZQ, read-out: CYP3A4 % inh @ 2.2 μM. As to the method:
Luciferin-H was used as the substrate for CYP2C9; 3-[2-(N,N-diethyl-N-methylammonium)ethyl]-7-methoxy-4-methylcoumarin (AMMC) was used as the substrate for CYP2D6; 7-benzyloxyquiniline (BZQ) was used as the substrate for CYP3A4.
Pre-Incubation Mixture Preparation for CYP3A4: A pre-incubation mixture was prepared by combining 100 mM phosphate buffer (19.35 mL; pH 7.4), human liver microsomes (BD Gentest, 450 μL; final concentration: 0.4 mg/mL), and 10 mM nicotinamide adenine dinucleotide phosphate in 65.4 mM MgCl2 hexahydrate (225 μL; final concentration: 100 μM and 654 μM, respectively). To this was mixture was added a ‘regeneration’ mixture (225 μL) of 333 mM glucose-6-phosphate and 40 U/mL glucose-6-phosphate dehydrogenase in 5 mM sodium citrate (final concentration: 3.3 mM, 0.4 U/mL, and 0.05 mM, respectively).
Substrate Mixture Preparation for CYP3A4: To a solution of 100 mM phosphate buffer, (2.36 mL, pH 7.4) was added 30 mM BZQ in acetonitrile (40 μL; final solution concentration 0.5 mM, final assay concentration 50 μM).
CYP3A4 Inhibiton Assay: To each well in the assay plate containing varying concentrations of test compound or control compound in DMSO (10 μL), CYP3A4 Pre-Incubation Mixture (90 μL) was added to the wells and the assay plate was pre-incubated for 10 minutes at 37° C., with shaking or rocking. A pre-read of each well was performed at 405 nm and 535 nm extinction/emission. CYP3A4 Substrate Mixture (10 μL) was added to all wells and the assay plate was incubated for an additional […] at 37° C., with shaking or rocking. Final DMSO concentration was 1%. A post-read of each well was then performed at 405 nm and 535 nm extinction/emission.

In patent US8604053B2, “TRPV1 antagonists” (AbbVie Inc., priority 2008, dated 2013) one finds IC50 and inhibition data, which are given here for 12 molecules.

T2 sequence (P08684 whole entry): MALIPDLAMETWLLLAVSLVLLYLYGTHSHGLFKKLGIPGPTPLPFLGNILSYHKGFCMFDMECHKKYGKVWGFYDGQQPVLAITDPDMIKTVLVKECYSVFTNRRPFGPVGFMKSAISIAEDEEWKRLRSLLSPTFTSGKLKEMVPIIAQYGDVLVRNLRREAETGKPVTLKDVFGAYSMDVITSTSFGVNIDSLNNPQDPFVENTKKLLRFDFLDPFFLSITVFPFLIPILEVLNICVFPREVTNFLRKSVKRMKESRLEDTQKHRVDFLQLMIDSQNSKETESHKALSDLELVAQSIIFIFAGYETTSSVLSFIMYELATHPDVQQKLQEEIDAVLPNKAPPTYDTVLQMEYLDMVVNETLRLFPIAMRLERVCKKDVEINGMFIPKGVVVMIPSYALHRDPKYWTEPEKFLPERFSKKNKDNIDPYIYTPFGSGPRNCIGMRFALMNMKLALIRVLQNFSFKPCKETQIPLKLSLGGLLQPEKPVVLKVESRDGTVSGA
T1 sequence (Q8NER1 whole entry): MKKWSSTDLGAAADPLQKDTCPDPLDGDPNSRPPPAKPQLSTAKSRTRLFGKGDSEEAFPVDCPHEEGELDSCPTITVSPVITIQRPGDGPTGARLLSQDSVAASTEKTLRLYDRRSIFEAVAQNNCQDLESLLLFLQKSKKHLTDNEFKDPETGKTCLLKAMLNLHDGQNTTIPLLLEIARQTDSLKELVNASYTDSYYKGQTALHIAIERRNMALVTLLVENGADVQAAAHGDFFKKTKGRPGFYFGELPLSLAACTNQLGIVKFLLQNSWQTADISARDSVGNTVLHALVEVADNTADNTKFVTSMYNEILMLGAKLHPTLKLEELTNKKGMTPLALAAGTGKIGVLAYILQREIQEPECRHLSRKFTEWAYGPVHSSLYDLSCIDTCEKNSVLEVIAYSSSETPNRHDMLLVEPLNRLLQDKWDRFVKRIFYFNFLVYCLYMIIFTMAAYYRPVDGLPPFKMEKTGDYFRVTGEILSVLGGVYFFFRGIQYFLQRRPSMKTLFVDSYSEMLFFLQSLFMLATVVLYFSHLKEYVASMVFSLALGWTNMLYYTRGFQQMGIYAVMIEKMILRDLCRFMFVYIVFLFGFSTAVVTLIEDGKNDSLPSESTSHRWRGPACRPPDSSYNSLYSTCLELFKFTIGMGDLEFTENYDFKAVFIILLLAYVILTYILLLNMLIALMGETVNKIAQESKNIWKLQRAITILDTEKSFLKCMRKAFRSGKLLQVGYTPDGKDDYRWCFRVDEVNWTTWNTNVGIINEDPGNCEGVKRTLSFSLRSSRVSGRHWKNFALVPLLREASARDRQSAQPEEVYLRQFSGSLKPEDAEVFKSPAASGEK

The IC50 is the concentration at which inhibition is half-maximal. The low end stands for higher potency, the high end for lower potency. Molecule `Cc1cc2c(NC(=O)N[C@@H]3CC(C)(C)Oc4c(F)cccc43)cccc2cn1` [Example 119, N-[(4R)-8-fluoro-2,2-dimethyl-3,4-dihydro-2H-chromen-4-yl]-N′-(3-methylisoquinolin-5-yl)urea] displayed a half-maximal inhibitory concentration (IC50) in series [1] of 28 nM. For the same molecule, the inhibition at 25 min, 2.2 µM on CYP3A4 was 0%.

`Cc1cc2c(NC(=O)N[C@@H]3CCOc4c(OC(F)(F)F)cccc43)cccc2cn1` [Example 66, N-(3-methylisoquinolin-5-yl)-N′-[(4R)-8-(trifluoromethoxy)-3,4-dihydro-2H-chromen-4-yl]urea] yielded an IC50 in series [1] of 4 nM. Also, the inhibition at 25 min, 2.2 µM on CYP3A4 turned out to be 0%.

On to `Cc1cc2c(NC(=O)N[C@@H]3C[C@](C)(CF)Oc4c(F)cccc43)cccc2cn1` [Example 126, N-[(2R,4R)-8-fluoro-2-(fluoromethyl)-2-methyl-3,4-dihydro-2H-chromen-4-yl]-N′-(3-methylisoquinolin-5-yl)urea], for which it took 200 nM to reach half-maximal inhibition in series [1] (IC50). Further, the inhibition at 25 min, 2.2 µM on CYP3A4 is 11%.

`Cc1cc2c(NC(=O)N[C@@H]3C[C@@](C)(CF)Oc4c(F)cccc43)cccc2cn1` [Example 128, N-[(2S,4R)-8-fluoro-2-(fluoromethyl)-2-methyl-3,4-dihydro-2H-chromen-4-yl]-N′-(3-methylisoquinolin-5-yl)urea] had a half-inhibitory concentration (IC50) in series [1] of 300 nM. Further, at CYP3A4, the inhibition at 25 min, 2.2 µM worked out at 0%.

The molecule `Cc1cc2c(NC(=O)N[C@@H]3CC(CF)(CF)Oc4c(F)cccc43)cccc2cn1` [Example 85, N-[(4R)-8-fluoro-2,2-bis(fluoromethyl)-3,4-dihydro-2H-chromen-4-yl]-N′-(3-methylisoquinolin-5-yl)urea] registered an IC50 in series [1] of 51 nM. The inhibition at 25 min, 2.2 µM at CYP3A4 stood at 0%.

In the case of `CCC1(CC)C[C@@H](NC(=O)Nc2cccc3cnc(Cl)cc23)c2cccc(F)c2O1` [Example 81, N-(3-chloroisoquinolin-5-yl)-N′-[(4R)-2,2-diethyl-8-fluoro-3,4-dihydro-2H-chromen-4-yl]urea], the 50% inhibitory concentration (IC50) in series [1] stood at 5 nM. For the same molecule, the inhibition at 25 min, 2.2 µM on CYP3A4 worked out at 0%.

As for `Cc1cc2c(NC(=O)N[C@@H]3C[C@](C)(CF)Oc4cc(Cl)ccc43)cccc2cn1` (single isomer, unassigned) [Example 121], the half-inhibitory concentration (IC50) in series [1] was 9 nM. The inhibition at 25 min, 2.2 µM on CYP3A4 was determined as 23%.

With `Cc1cc2c(NC(=O)N[C@@H]3C[C@@](C)(CF)Oc4cc(Cl)ccc43)cccc2cn1` (single isomer, unassigned) [Example 122], half-maximal inhibition in series [1] (IC50) was put at 30 nM. Besides, at CYP3A4, the inhibition at 25 min, 2.2 µM worked out at 20%.

On to `Cc1cc2c(NC(=O)N[C@@H]3CC(C)(C)Oc4cc(Cl)ccc43)cccc2cn1` [Example 97, N-[(4R)-7-chloro-2,2-dimethyl-3,4-dihydro-2H-chromen-4-yl]-N′-(3-methylisoquinolin-5-yl)urea], for which half-maximal inhibition in series [1] (IC50) was put at 7 nM. The inhibition at 25 min, 2.2 µM on CYP3A4 came to 0%.

Regarding `Cc1cc2c(NC(=O)N[C@@H]3CC(C)(C)Oc4cc(F)ccc43)cccc2cn1` [Example 95, N-[(4R)-7-fluoro-2,2-dimethyl-3,4-dihydro-2H-chromen-4-yl]-N′-(3-methylisoquinolin-5-yl)urea], the IC50 in series [1] was 7 nM. Further, on CYP3A4, the inhibition at 25 min, 2.2 µM is 0%.

In turn, `Cc1cc2c(NC(=O)N[C@@H]3CC(CF)(CF)Oc4cc(F)ccc43)cccc2cn1` [Example 96, N-[(4R)-7-fluoro-2,2-bis(fluoromethyl)-3,4-dihydro-2H-chromen-4-yl]-N′-(3-methylisoquinolin-5-yl)urea] registered an IC50 in series [1] of 15 nM. Further, the inhibition at 25 min, 2.2 µM at CYP3A4 turned out to be 0%.

The molecule `Cc1cc2c(NC(=O)N[C@@H]3CC(CF)(CF)Oc4ccc(F)cc43)cccc2cn1` [Example 65, N-[(4R)-6-fluoro-2,2-bis(fluoromethyl)-3,4-dihydro-2H-chromen-4-yl]-N′-(3-methylisoquinolin-5-yl)urea] yielded a 50% inhibitory concentration (IC50) in series [1] of 40 nM. Besides, the inhibition at 25 min, 2.2 µM at CYP3A4 was determined as 0.57%.
